# Measurements published in the supplement of paper PMC10733146.
# Experiments:
# Experiment in all cases: viability relative to DMSO control (fraction); higher = less drug effect (more viable cells)
# Details in all cases: 48 h
# [1] = system: primary AML patient cells (S089)
# Method in brief: (§1)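 Viability was measured as CellTiter-Glo luminescence relative to the median of 16 inner DMSO wells. Primary mononuclear tumour cells, fresh or cryopreserved, were Ficoll-isolated from blood or bone marrow or taken from processed lymph node. They were seeded at 4 × 10^4 cells per well into 384-well plates holding pre-plated compounds at five concentrations, one well each, and kept in RPMI-1640 with penicillin/streptomycin, L-glutamine and human serum at 37 °C and 5% CO2 for 48 h.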
# [2] = system: primary MCL patient cells (S068)
# Method in brief: as §1
# [3] = system: primary AML patient cells (S017)
# Method in brief: as §1
# [4] = system: primary AML patient cells (S085)
# Method in brief: as §1
# [5] = system: primary AML patient cells (S091)
# Method in brief: as §1
# [6] = system: primary AML patient cells (S019)
# Method in brief: as §1
# [7] = system: primary CLL patient cells (S031)
# Method in brief: as §1
# [8] = system: primary BL patient cells (S005)
# Method in brief: as §1
# [9] = system: primary MCL patient cells (S053)
# Method in brief: as §1
# [10] = system: primary AML patient cells (S037)
# Method in brief: as §1
# [11] = system: primary AML patient cells (S079)
# Method in brief: as §1
# [12] = system: primary AML patient cells (S025)
# Method in brief: as §1
# [13] = system: primary AML patient cells (S012)
# Method in brief: as §1
# [14] = system: primary AML patient cells (S002)
# Method in brief: as §1
# [15] = system: primary AML patient cells (S072)
# Method in brief: as §1
# [16] = system: primary AML patient cells (S056)
# Method in brief: as §1
# [17] = system: primary FL patient cells (S022)
# Method in brief: as §1
# [18] = system: primary ALL patient cells (S048)
# Method in brief: as §1
# [19] = system: primary AML patient cells (S071)
# Method in brief: as §1
# [20] = system: primary CLL patient cells (S043)
# Method in brief: as §1
smiles,measurement,setting,value
CO[C@H]1C[C@@H]2CC[C@@H](C)[C@@](O)(O2)C(=O)C(=O)N2CCCC[C@H]2C(=O)O[C@H]([C@H](C)C[C@@H]2CC[C@@H](OC(=O)C(C)(CO)CO)[C@H](OC)C2)CC(=O)[C@H](C)/C=C(\C)[C@@H](O)[C@@H](OC)C(=O)[C@H](C)C[C@H](C)/C=C/C=C/C=C/1C [Temsirolimus],viability,[1]; 0.032 µM,0.752
same,viability,[1]; 0.16 µM,0.831
same,viability,[1]; 0.8 µM,0.673
same,viability,[1]; 4 µM,0.684
same,viability,[1]; 20 µM,0.719
same,viability,[2]; 0.032 µM,0.604
same,viability,[2]; 0.16 µM,0.614
same,viability,[2]; 0.8 µM,0.608
same,viability,[2]; 4 µM,0.738
same,viability,[2]; 20 µM,1.01
same,viability,[3]; 0.032 µM,0.724
same,viability,[3]; 0.16 µM,0.765
same,viability,[3]; 0.8 µM,0.739
same,viability,[3]; 4 µM,0.727
same,viability,[3]; 20 µM,0.634
same,viability,[4]; 0.032 µM,0.852
same,viability,[4]; 0.16 µM,0.752
same,viability,[4]; 0.8 µM,0.918
same,viability,[4]; 4 µM,0.79
same,viability,[4]; 20 µM,0.58
same,viability,[5]; 0.032 µM,0.697
same,viability,[5]; 0.16 µM,0.686
same,viability,[5]; 0.8 µM,0.659
same,viability,[5]; 4 µM,0.663
same,viability,[5]; 20 µM,0.611
same,viability,[6]; 0.032 µM,0.909
same,viability,[6]; 0.16 µM,0.834
same,viability,[6]; 0.8 µM,0.915
same,viability,[6]; 4 µM,0.873
same,viability,[6]; 20 µM,0.739
same,viability,[7]; 0.032 µM,0.795
same,viability,[7]; 0.16 µM,0.708
same,viability,[7]; 0.8 µM,0.8
same,viability,[7]; 4 µM,0.831
same,viability,[7]; 20 µM,0.701
same,viability,[8]; 0.032 µM,0.775
same,viability,[8]; 0.16 µM,0.707
same,viability,[8]; 0.8 µM,0.784
same,viability,[8]; 4 µM,0.775
same,viability,[8]; 20 µM,0.653
same,viability,[9]; 0.032 µM,0.884
same,viability,[9]; 0.16 µM,0.879
same,viability,[9]; 0.8 µM,0.927
same,viability,[9]; 4 µM,0.898
same,viability,[9]; 20 µM,0.755
same,viability,[10]; 0.032 µM,0.966
same,viability,[10]; 0.16 µM,0.903
same,viability,[10]; 0.8 µM,0.957
same,viability,[10]; 4 µM,0.931
same,viability,[10]; 20 µM,0.807
same,viability,[11]; 0.032 µM,0.764
same,viability,[11]; 0.16 µM,0.771
same,viability,[11]; 0.8 µM,0.768
same,viability,[11]; 4 µM,0.755
same,viability,[11]; 20 µM,0.675
same,viability,[12]; 0.032 µM,0.914
same,viability,[12]; 0.16 µM,0.962
same,viability,[12]; 0.8 µM,0.883
same,viability,[12]; 4 µM,0.893
same,viability,[12]; 20 µM,0.754
same,viability,[13]; 0.032 µM,0.814
same,viability,[13]; 0.16 µM,0.732
same,viability,[13]; 0.8 µM,0.85
same,viability,[13]; 4 µM,0.845
same,viability,[13]; 20 µM,0.702
same,viability,[14]; 0.032 µM,0.755
same,viability,[14]; 0.16 µM,0.706
same,viability,[14]; 0.8 µM,0.702
same,viability,[14]; 4 µM,0.62
same,viability,[14]; 20 µM,0.44
same,viability,[15]; 0.032 µM,0.733
same,viability,[15]; 0.16 µM,0.886
same,viability,[15]; 0.8 µM,0.704
same,viability,[15]; 4 µM,0.728
same,viability,[15]; 20 µM,0.604
same,viability,[16]; 0.032 µM,0.606
same,viability,[16]; 0.16 µM,0.789
same,viability,[16]; 0.8 µM,0.847
same,viability,[16]; 4 µM,0.735
same,viability,[16]; 20 µM,0.425
same,viability,[17]; 0.032 µM,0.962
same,viability,[17]; 0.16 µM,0.821
same,viability,[17]; 0.8 µM,0.966
same,viability,[17]; 4 µM,0.917
same,viability,[17]; 20 µM,0.569
same,viability,[18]; 0.032 µM,0.747
same,viability,[18]; 0.16 µM,0.706
same,viability,[18]; 0.8 µM,0.702
same,viability,[18]; 4 µM,0.748
same,viability,[18]; 20 µM,0.49
same,viability,[19]; 0.032 µM,0.837
same,viability,[19]; 0.16 µM,0.761
same,viability,[19]; 0.8 µM,0.723
same,viability,[19]; 4 µM,0.646
same,viability,[19]; 20 µM,0.407
same,viability,[20]; 0.032 µM,0.749
same,viability,[20]; 0.16 µM,0.745
same,viability,[20]; 0.8 µM,0.738
same,viability,[20]; 4 µM,0.733
same,viability,[20]; 20 µM,0.692
